Data from patent publication EP1100482B1, “USE OF CALIX(N)ARENES IN THE MANUFACTURE OF A MEDICAMENT FOR TREATING FIBROTIC DISEASES” (CENTRE NATIONAL DE LA RECHERCHE SCIENTIFIQUE, priority 1998, dated 2000).
Where a chain is given by its changes, count along the chain named. pIC50, pKi: −log10 of the molar value.

Legend:
[1] = target: T1, lysyl-oxydase d'aorte bovine (Bos taurus, UniProt P33072); experiment: Lysyl oxidase activity assay (tritium release from 3H elastin); type: biochemical; settings: partially purified lysyl oxidase from fetal bovine aorta; 3H élastine substrate; 37°C; pH 8,0; read-out: concentration nécessaire pour inhiber 50% de l'activité de lysyl-oxydase
T1 construct: De l'aorte bovine foetale broyée est rincée par du tampon NaCI 0,12M; from tissue; host or cells: fetal bovine aorta
T1 sequence (P33072 170-418): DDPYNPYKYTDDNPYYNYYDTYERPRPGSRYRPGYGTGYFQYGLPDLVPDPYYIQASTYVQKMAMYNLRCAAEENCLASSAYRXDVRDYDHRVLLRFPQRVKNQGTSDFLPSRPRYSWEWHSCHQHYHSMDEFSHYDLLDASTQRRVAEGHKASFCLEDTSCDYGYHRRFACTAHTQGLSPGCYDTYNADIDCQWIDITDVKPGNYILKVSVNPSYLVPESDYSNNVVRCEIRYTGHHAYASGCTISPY
Method: 1. Purification partielle de la lysyl-oxydase d'aorte bovine
Ce protocole est inspiré de celui de (WILLIAMS et KAGAN, Anal. Biochem. 149, 430-437, 1985), et de (KAGAN et al. Biochem. J. 177, 203-214 (1979)), qui a été sensiblement modifié.
Toutes les étapes sont effectuées à 4 °C ou dans la glace.
De l'aorte bovine foetale broyée est rincée par du tampon NaCI 0,12M, NaPi 16 mM, pH 7,7 puis par du NaPi 16 mM, pH 7,7 (tampon PB). La lysyl oxydase est extraite du résidu par de l'urée 4 M (concentration finale dans le tampon PB). Le surnageant obtenu après centrifugation à 10.000 g pendant 30 minutes est dilué deux fois dans du PB puis incubé avec de la DEAE-cellulose pendant 3 heures. La résine est mise en colonne et rincée successivement par du tampon PB contenant de l'urée 2M , du tampon PB puis du tampon PB contenant du NaCI 0,4 M.
La lysyl oxydase est éluée à partir de la DEAE-cellulose par de l'urée 6M dans du tampon PB. Les fractions présentant une absorbance à 280 nm sont réunies et dialysées pendant une nuit contre du tampon PB en présence de gel de Bleu de Cibacron (Biorad). Le gel est ensuite mis en colonne, et après des rinçages successifs par du tampon PB, du tampon PB-NaCI 1M et à nouveau du tampon PB, la lysyl oxydase est éluée du gel de Bleu de Cibacron par de l'urée 6 M dans du tampon PB. […]

lysyl oxydase = target: T2, lysyl oxydase (Homo sapiens, UniProt P28300); settings: specific lysyl oxidase inhibitor described in the literature (Kagan, 1994); cited from earlier work
T2 sequence (P28300 169-417): T1 sequence (P33072 170-418) with T10S, S29G, P49A, A64S, S80T, X84A, S142N, N188G, S224T, E231D

Row | pIC50 [1] | SMILES | pKi (lysyl oxydase)
1 | 2.92 | O=S(=O)(O)c1cc2c(O)c(c1)Cc1cc(S(=O)(=O)O)cc(c1O)Cc1cc(S(=O)(=O)O)cc(c1O)Cc1cc(S(=O)(=O)O)cc(c1O)Cc1cc(S(=O)(=O)O)cc(c1O)Cc1cc(S(=O)(=O)O)cc(c1O)C2 | 
2 |  | N#CCCN [βAPN, β amino-propionitrile] | 5.22
